In the METLIN SMRT retention time set (Domingo-Almenara et al. 2019):

assay: gradient 5% acetonitrile 3 min, to 50% in 2 min, to 85% in 15 min, held 3 min, 100 µL/min; conditions: column: Zorbax Extend-C18 2.1 x 50 mm; eluents: water / acetonitrile, 0.1% formic acid
In short: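 The system's dead and dwell volumes were 40 μL and 900 μL, with a Zorbax Extend-C18 column (2.1 × 50 mm, 1.8 μm) run at 100 μL/min in water and acetonitrile containing 0.1% formic acid each. Pure standards were analyzed in mixtures of ~100 molecules by HPLC–quadrupole time-of-flight mass spectrometry in positive and negative ionization mode. Retention time was assigned from computationally picked, manually inspected adduct peaks.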

SMILES | RP-LC retention time [s]
O=C(Nc1cccc([N+](=O)[O-])c1)c1ccc2ccccc2c1O | 1240
CC(C)(C)c1nnc(NC(=O)C2CC(=O)N(CCc3c[nH]c4ccc(Cl)cc34)C2)s1 (stereo not given) | 831
COc1ccc(S(=O)(=O)N(C)C2CCc3nn(CC4CC4)c(=O)n3CC2)cc1Cl (stereo not given) | 810
COc1cccc(C2Cn3nnc(-c4nc(-c5cccc(F)c5)no4)c3CO2)c1 (stereo not given) | 1130
COc1ccc(Cl)c2c(=O)c3c([nH]c12)CCN(CC(=O)Nc1c(C)cccc1C)C3 | 621
Cc1cc2nn(CC(=O)N3CCC(C)CC3)c(=O)n2c(-c2ccc(Cl)cc2)n1 | 867
COc1cccc(CNC(=O)N2CCCC2c2cc(C(C)C)on2)c1 (stereo not given) | 832
Cc1noc(C)c1S(=O)(=O)N1CCC(Cc2ccc(COc3ccncc3)cc2)CC1 | 831
CN1c2cc(F)ccc2C(=O)NC12CCN(C(=O)c1ccc(F)cc1)CC2 | 744
CCOc1ccc(NC(=O)N2CCCC2c2nc(-c3ccc(OC)cc3)no2)cc1 (stereo not given) | 940
Cc1nc(-c2csc(S(=O)(=O)N3CCCC(C(=O)NCc4ccccc4Cl)C3)c2)no1 (stereo not given) | 940
CCOCCCNCc1ccc(-c2cc(Cl)ccc2Cl)o1 | 753
CCc1ccc(-c2ccc(=O)n(CCc3nc(-c4ccc(C)cc4)no3)n2)cc1 | 1180
CSc1ccc(-c2noc(Cn3cnc4c(cnn4-c4ccc(C)c(Cl)c4)c3=O)n2)cc1 | 1270
Cc1ccc(-n2ncc3c(=O)n(Cc4nc(-c5cccc(Br)c5)no4)cnc32)cc1 | 1180
O=C(NCc1ccc2c(c1)CCCN2C(=O)C1CCC1)c1ccc(C(F)(F)F)cc1 | 990
CCN1CCN(C(=O)c2cnn(-c3cc(-c4nc(C5CC5)no4)ccn3)c2C)CC1 | 641
O=C1NCCCn2cc(S(=O)(=O)NC3CCCCCC3)cc21 | 688
COc1ccccc1N1CCN(c2ccc(-c3nc(-c4ccccc4)no3)cn2)CC1 | 1350
COCCN1C(=O)c2ccccc2C(C(=O)NCCCOC(C)C)C12CCCCC2 (stereo not given) | 756
Cc1cccc(C)c1NC(=O)CSC1=Nc2ccccc2N=C(c2ccccc2)C1 | 1100
Cc1ccc(S(=O)(=O)N2C[C@@H](F)C[C@H]2C(=O)N2CCCCC2)cc1Cl | 826
CC(C)C(=O)Nc1ccc2ncnc(N3CCCC3)c2c1 | 591

SMILES | RP-LC retention time [s]
COc1ccc(CNC(=O)N2CC(Oc3ccc(-c4nc(C)no4)cc3)C2)cc1 | 825
Cc1ccc2c(c1)N(S(C)(=O)=O)CC(C)O2 (stereo not given) | 620
Cc1ccc(-c2ccc(N3CCCC(C(=O)NCc4ccco4)C3)nn2)cc1C (stereo not given) | 719
CC1CCN(C(=O)c2ccc3ncnc(N4CCCC4)c3c2)CC1 | 619
COc1cc(NC(=O)Cc2csc3nc(-c4ccc(Cl)cc4)cn23)cc(OC)c1OC | 875
COC(=O)c1ccccc1S(=O)(=O)Nc1ccc2c(c1)CCC(=O)N2 | 697
CCn1ccc(C(=O)N2CCN(c3nc(CN4CCC(C)CC4)cs3)CC2)n1 | 613
O=C(O)c1cc(-c2ccccc2F)n[nH]1 | 630
O=C(CCn1c(=O)oc2ccccc21)Nc1nc(-c2ccccc2)cs1 | 961
Cc1cc(C)n(CCN2CCN(C(=O)Cn3cnc4ccccc43)CC2)n1 | 512
CCN1c2cc(C)ccc2-n2cccc2C12CCN(C(=O)NCC(=O)OC)CC2 | 895
CS(=O)(=O)N1CCC(C(=O)Nc2ccc3c(c2)N(C(=O)C2CCCO2)CC3)CC1 (stereo not given) | 631
N#Cc1cccc(-c2cn3c(n2)N(C(=O)c2ccccn2)CCC3)c1 | 656
Cc1noc2nc(CCC(=O)NCCCN3CCc4ccccc4C3)nc(N3CCOCC3)c12 | 605
COc1ccc(S(=O)(=O)N2[C@H]3CC[C@@H]2c2cnc(C)nc2C3)cc1 | 693
Cc1ccccc1NC(=O)CSc1nnc2c3cc(-c4ccccc4)nn3ccn12 | 841
CC1(C)CC(=O)c2cn(-c3ccccc3)c(=O)c(C(=O)N3CCC(N4CCCCC4)CC3)c2C1 | 622
Cc1ccc(NC(=O)Cn2cnc3c(c2=O)CCCC3)cc1 | 710
CCOc1ccc(NC(=O)c2cc(C)n3nc(C)cc3n2)cc1 | 976
Cc1ccc(NC(=O)CCNc2cnc3cnccn23)cc1Cl | 590
Cc1ccc(NC(=O)c2cn(C)nc2S(=O)(=O)N2CCSCC2)cc1F | 981
COCc1nc2cccnc2n1C1CCN(C(=O)Nc2ccc3c(c2)OCCO3)CC1 | 654
CCCn1c(=O)sc2cc(S(=O)(=O)N3CCC(C(=O)N4c5ccccc5CC4C)CC3)ccc21 (stereo not given) | 1080

SMILES | RP-LC retention time [s]
CCC(=O)N1CCc2cc(N3CC(C(=O)NCc4cccs4)CC3=O)ccc21 (stereo not given) | 695
CCN1c2ccc(F)cc2C(=O)NC12CCN(C(=O)c1ccc(C)cc1)CC2 | 824
COC(=O)c1c(-c2ccc(Cl)cc2)noc1N1CCOCC1 | 968
COc1cccc(C(=O)NCCCn2cccc2)c1 | 749
COc1cccc(-n2c(=O)c3sccc3n(Cc3nc(-c4ccc(F)c(Cl)c4)no3)c2=O)c1 | 1060
COc1cc(C(C)=O)ccc1OCC(O)CN1CCN(c2cccc(C)c2C)CC1 (stereo not given) | 597
CCOC(=O)CCNC(=O)N1CCN(Cc2nc3cccnc3n2-c2ccc(F)cc2)CC1 | 607
CCN1CCN(c2nc(F)c(F)c(S(=O)(=O)CCN3C(=O)CCC3=O)c2F)CC1 | 582
O=C(C1CCCN(c2cnc3nccnc3c2)C1)N1CCN(C2CCCCC2)CC1 (stereo not given) | 567
COc1ccc(C2(C(=O)N3CCCC(CO)CCNC(=O)CC3)CC2)cc1 (stereo not given) | 622
Cc1ccc(S(=O)(=O)N2CCN(CCc3cn(C)c4ncccc34)CC2)cc1Cl | 686
Cc1ncc2c(n1)C[C@@H]1CC[C@H]2N1C(=O)NCCc1ccccc1 | 647
CC(C)CNC(=O)c1nc2cccnc2n(C)c1=O | 701
CSc1nc2ccc3nc(NC(=O)c4c(F)cccc4F)sc3c2s1 | 990
CCOc1ccc(-n2nnc(-c3nc(-c4ccc(C(C)C)cc4)cs3)c2N)cc1 | 1350
O=C(NCc1ccc(F)cc1)N1CCCN(c2nc3cccnc3s2)CC1 | 687
O=C(Nc1ccccc1C(=O)NCCCN1CCCC1)C1=CSCCO1 | 613
O=C(NCc1ccncc1)c1sc2ncccc2c1-n1cccc1 | 592
CCOCCCNC(=O)NCCn1cnc2cc(C(=O)N3CCCC3)ccc21 | 577
Cc1noc(C)c1-c1ccc(S(=O)(=O)N2CCCc3ccccc32)cc1 | 1060
COCCNC(=O)CSc1nccc2c1ccn2Cc1ccccc1 | 666
CCCc1nnc(SCC(=O)NC2CCCCCC2)n1-n1cccc1 | 831
Cc1cccc(Nc2nc(-c3ccncc3)cs2)c1 | 734

SMILES | RP-LC retention time [s]
COc1cc(-c2nc3ncccn3c2Nc2cccc(C)c2)ccc1O | 647
CCOC(=O)N1CCN(c2cc(C(=O)O)c3cc(NC(=O)c4cccc(C)c4)ccc3n2)CC1 | 649
CC(C)CC(=O)Nc1nc(-c2ccc3c(c2)N(C)C(=O)CO3)cs1 | 830
COCCC1CCN(C(=O)COc2cccc(Cl)c2)CC1 | 855
Cc1cc(S(=O)(=O)N2CCC(OCc3noc(C4CCCO4)n3)CC2)ccc1Cl (stereo not given) | 1040
CCc1ccc(NC(=O)c2cc3sc(Cl)cc3n2C)cc1 | 1210
O=C(Cn1cccc1-c1nc(-c2ccccc2)no1)N1CCCc2ccccc21 | 1210
CCn1c(=O)c(SCC(=O)NCCN(C)Cc2ccccc2)nc2ccccc21 | 641
CC(C)n1c(N2CCN(C(=O)c3ccc4c(c3)OCO4)CC2)cc(=O)n(C(C)C)c1=O | 823
COc1ccc(C2Cn3cnc(C(=O)N4CCC(C(=O)NC5CCCCCC5)CC4)c3CO2)cc1 (stereo not given) | 797
O=C(Nc1ccccc1)N1CCc2nc(-c3ccccc3)ncc2C1 | 859
CC(C)NC(=O)Cn1cccc(-c2nc(-c3ccc(Br)cc3)no2)c1=O | 824
Cc1nnc(NC(=O)c2ccc3c(c2)OCO3)s1 | 646
C=CCN1CCN(c2nc3cc(C(=O)OC)ccc3c(=O)n2-c2ccc(F)c(Cl)c2)CC1 | 699
CC(C)CNC(=O)c1cn(-c2ccc(S(=O)(=O)N3CCCC(C)C3)cn2)cn1 (stereo not given) | 936
CCc1cccc(C)c1Nc1c(-c2ccccc2)nc2cnccn12 | 947
COc1ccc(OC)c(NC(=O)N2CCC(n3cnc4cccnc43)CC2)c1 | 649
COc1cccc(C(=O)Nc2c(-c3ccccc3)nc3ccccn23)c1OC | 666
COCc1cc(=O)n(CC(=O)Nc2cc(Cl)ccc2C)c(N2CCOCC2)n1 | 895
CN1C(=O)C2CCCCN2c2ccc(C(=O)NCCc3c[nH]c4ccccc34)cc21 (stereo not given) | 871
Fc1ccc(OCc2nc(C3CCCN3)no2)cc1 (stereo not given) | 564
